Key:
OXA-24/40 [1] = target: T1, OXA-24/40 (Acinetobacter baumannii, UniProt Q8RLA6); test: competitive inhibition of ampicillin hydrolysis; assay type: biochemical
OXA-24/40 [2] = target: OXA-24/40 (Acinetobacter baumannii, UniProt Q8RLA6, V130D); test: SDS-PAGE fluorescent acyl-enzyme detection, single-turnover conditions; assay type: binding
OXA-24/40 [3] = target: T1, OXA-24/40; test: kinetic competition with ampicillin as reporter substrate; assay type: biochemical

Question: With `C[C@@H](O)[C@H]1C(=O)N2C(C(=O)O)=C(S[C@H]3C[C@@H](C(=O)N(C)C)N(C(=S)Nc4ccc5c(c4)C(=O)OC54c5ccc(O)cc5Oc5cc(O)ccc54)C3)[C@H](C)[C@H]12` [FM, fluorescein-meropenem] as the compound, how does the Ki (OXA-24/40 [1]) read?
Answer: 43 nM

Question: And the “SDS-PAGE fluorescent acyl-enzyme detection, single-turnover conditions” value (OXA-24/40 [2])?
Answer: All Val130 substitutions showed some degree of fluorescence labeling, but the Val130Asp, Val130Thr and Val130Asn substitutions most severely reduced deacylation

Question: How did the Ki (OXA-24/40 [3]) turn out when `C[C@@H](O)[C@H]1C(=O)N2C(C(=O)O)=C(S[C@@H]3CN[C@H](C(=O)N(C)C)C3)[C@H](C)[C@H]12` [meropenem] was run?
Answer: 18 nM
